Measurements: patent US11123340B2, “Small-molecule UT-A-selective urea transport inhibitors” (The Regents of the University of California, priority 2014, dated 2021)

What was measured:
[1] = target: T1, rat UT-A1 (Rattus norvegicus, UniProt Q62668); assay: In vitro functional studies of UT-A1 inhibition (reversibility, urea competition, kinetics); type: cell-based; settings: for Mechanism of inhibition of urea transport: urea concentration-dependence of apparent IC50
T1 construct: expressed in transfected cells; host or cells: MDCK cells stably co-expressing rat UT-A1, human AQP1 and YFP-H148Q/V163S
T1 sequence (Q62668 1-929): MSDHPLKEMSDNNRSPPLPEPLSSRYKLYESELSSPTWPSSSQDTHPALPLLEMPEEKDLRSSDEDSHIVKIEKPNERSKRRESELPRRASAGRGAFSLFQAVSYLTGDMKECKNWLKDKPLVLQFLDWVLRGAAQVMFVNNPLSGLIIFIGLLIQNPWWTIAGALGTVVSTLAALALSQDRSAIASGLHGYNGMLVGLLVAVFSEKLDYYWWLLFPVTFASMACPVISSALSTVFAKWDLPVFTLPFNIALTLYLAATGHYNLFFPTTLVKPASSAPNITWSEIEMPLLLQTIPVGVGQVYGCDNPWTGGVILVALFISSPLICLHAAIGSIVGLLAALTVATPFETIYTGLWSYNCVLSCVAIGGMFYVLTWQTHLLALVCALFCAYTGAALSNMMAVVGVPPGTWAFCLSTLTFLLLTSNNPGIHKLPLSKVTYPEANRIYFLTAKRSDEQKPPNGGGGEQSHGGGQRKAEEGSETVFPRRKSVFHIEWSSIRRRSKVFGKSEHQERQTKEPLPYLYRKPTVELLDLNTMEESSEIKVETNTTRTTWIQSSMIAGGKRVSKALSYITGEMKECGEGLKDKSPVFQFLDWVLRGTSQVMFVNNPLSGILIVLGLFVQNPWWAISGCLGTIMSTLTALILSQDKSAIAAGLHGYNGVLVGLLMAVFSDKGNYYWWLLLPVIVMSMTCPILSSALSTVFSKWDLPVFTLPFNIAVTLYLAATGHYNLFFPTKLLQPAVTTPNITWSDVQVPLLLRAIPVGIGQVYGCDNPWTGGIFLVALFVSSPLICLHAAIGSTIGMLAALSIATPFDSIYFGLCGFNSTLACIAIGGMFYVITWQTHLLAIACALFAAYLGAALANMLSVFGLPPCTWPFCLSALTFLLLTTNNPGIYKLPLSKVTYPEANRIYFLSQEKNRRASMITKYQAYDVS
Procedure: Reversibility of UT-A1 inhibition was tested by pre-incubating MDCK cells expressing rat UT-A1, YFP-H148Q/V163S and AQP1 with inhibitors for 15 min (at 3 μM) and then washing the cells with PBS prior to assay. The urea concentration-dependence of UT-A1 inhibition was studied from inhibitor concentration-response data using different of urea gradients at zero initial intracellular urea concentration, or after preincubation of cells with different concentrations of urea for 10 min prior to a 1,600 mM urea gradient. The kinetics of UT-A1 inhibition was measured by adding inhibitors (3 μM) at different time points (0 to 10 min) prior to assay.
Inhibitor reversibility was studied by incubation of the UT-A1-expressing cells with compounds for 15 min and washing, followed by assay of UT-A1 inhibition. UT-A1 urea transport after inhibitor washout was the same as before inhibitor addition for all compounds (FIG. 3A), indicating full reversibility. Inhibitor competition with urea, as might occur by steric hindrance if the inhibitor and urea occupied physically overlapping sites on the UT-A1 protein, was studied from the urea concentration-dependence of apparent inhibitor IC50. Studies were done with zero urea inside cells initially and different urea concentrations outside, and with different urea concentrations inside cells initially and the same inward urea gradient.
To further evaluate the potential site of inhibitor action, the kinetics of UT-A1 inhibition was measured by assay of UT-A1 inhibition at different times after compound addition. […] To assess inhibitor membrane permeability transport of UTAinh-E02 and UTAinh-F11 across MDCK monolayers grown on porous filters by LC/MS was measured. Transport of UTAinh-F11 was much faster than that of UTAinh-E02 (FIG. 3C, right lower panel), with computed transepithelial permeability coefficients of […] and 1.1×10^−5 cm/s, respectively. […]

[2] = In vitro metabolic stability in rat hepatic microsomes; type: in vitro ADME; settings: at 60 min, 5 μM, NADPH
Procedure: As described (see, e.g., Snyder et al. (2011) J Med Chem. 54, 5468-5477), compounds (each 5 μM) were incubated for specified times at 37° C. with rat liver microsomes (1 mg protein/mL; Sigma-Aldrich, St. Louis, Mo.) in potassium phosphate buffer (100 mM) containing 1 mM NADPH. The mixture was then chilled on ice, and 0.5 mL of ice-cold EtOAc was added. Samples were centrifuged for 15 min at 3,000 rpm, the supernatant evaporated to dryness, and the residue was dissolved in 100 μl mobile phase (acetonitrile: water [3:1], containing 0.1% formic acid) for LC/MS. Reverse-phase HPLC separations were carried out using a XTERRA MS C18 column (2.1 mm×100 mm, 3.5 m) equipped with a solvent delivery system (Waters model 2695, Milford, Mass.). The solvent system consisted of a linear gradient from 5 to 95% acetonitrile containing 0.1% formic acid, run over 16 min (0.2 mL/min flow rate).
In vitro metabolic stability was measured by LC/MS after incubation with rat hepatic microsomes and NADPH.

[3] = system: MDCK cells; assay: Cell toxicity, Alamar blue assay; type: cell-based, canine; settings: 24 h, up to 25 μM
Procedure: MDCK cells on black 96-well Costar microplates with clear plastic bottoms were cultured for 24 h at 37° C. and incubated with test compounds (0 to 25 μM) for 24 h. Cell viability was assayed using AlamarBlue (Pierce, Rockford, Ill.) in which the reagent was added to each well, incubated for 30 min, and absorbance measured at 590 nm. For short-circuit current measurement, snapwell inserts containing MDCK cells were mounted on Ussing chambers. Test compounds (20 μM) were incubated with MDCK cells at both apical and basolateral sides for 10 min at 37° C. prior to addition of 20 μM forskolin and then 100 μM ATP. The apical and basolateral chambers contained identical solutions: 120 mM NaCl, 5 mM KCl, 1 mM MgCl2, 1 mM CaCl2, 5 mM HEPES, 25 mM NaHCO3 and 10 mM glucose. Solutions were bubbled with 5% CO2/95% O2 and maintained at 37° C. […]
Compound toxicity was evaluated by compound incubation for 24 h with MDCK cell cultures followed by Alamar blue assay. […] To assess potential ion channel off-target effects, short-circuit current was measured in MDCK cells in response to cAMP (forskolin) and calcium (ATP) agonists (FIG. 5C, right), which depends on the actions of multiple anion (CFTR, calcium-activated chloride channels) and cation (K^+, Na^+) channels.

Kinetics of UT-A1 inhibition ([1]; 3 μM inhibitor, different times after addition)	Mechanism of inhibition of urea transport [1]	metabolism [2] [%]	Structure (SMILES)	toxicity [3]
occurred over minutes	non-competitive	~50	CC(=O)Nc1ccc(-c2csc(-c3c[nH]c4ccccc34)n2)cc1 [UTA1inh-E02, N-(4-(2-(1H-indol-3-yl)thiazol-4-yl)phenyl)acetamide]	little toxicity
	non-competitive	~50	COc1ccc(C)cc1S(=O)(=O)Nc1ccc(Cl)c(N2CCCS2(=O)=O)c1 [UTA1inh-F11, N-[4-Chloro-3-(1,1-dioxido-1,2-thiazolidin-2-yl)phenyl]-2-methoxy-5-methylbenzene-sulfonamide]	little toxicity
